Assay results from patent EP4603105A1, “PHARMACEUTICAL COMPOSITION CONTAINING CYCLIC COMPOUND HAVING SELECTIVE KRAS INHIBITORY EFFECT AGAINST HRAS AND NRAS” (CHUGAI SEIYAKU KABUSHIKI KAISHA, priority 2022, dated 2024).
pIC50: −log10 of the molar value. Where a SMILES comes first, the peptide text is derived from it. Bridges are numbered along the chain shown (N, C = ends). [ ]: non-standard residue; d: D form. The star is where a group is joined. hPhe(3-Cl-4-CF3) = N[C@@H](CCc1ccc(C(F)(F)F)c(Cl)c1)C(=O)O; NPrPhe(4-CF3) = CCCN[C@@H](Cc1ccc(C(F)(F)F)cc1)C(=O)O; NEtPhe(4-CF3) = CCN[C@@H](Cc1ccc(C(F)(F)F)cc1)C(=O)O; NMePhe(4-Me) = CN[C@@H](Cc1ccc(C)cc1)C(=O)O; NMeGly(cPent) = CN[C@H](C(=O)O)C1CCCC1; NMeD = CN[C@@H](CC(=O)O)C(=O)O; NMeL = CN[C@@H](CC(C)C)C(=O)O; NMeS = CN[C@@H](CO)C(=O)O; Morpholide = C1CN(*)CCO1; Ac5c = NC1(C(=O)O)CCCC1; NPrGly = CCCNCC(=O)O; Sar = CNCC(=O)O

Key:
[1] = target: GDP-bound NRAS wild-type protein (Homo sapiens, UniProt P01111); experiment: Binding to NRAS by surface plasmon resonance (SPR), KD and KD ratio to KRAS
In short: (§1)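 Measured at 30°C: SPR with GDP-loaded, E. coli-expressed biotin-Avi RAS captured (~100–300 RU), ascending 75 s compound injections, HBS pH 7.4 with GDP, MgCl2, 4% DMSO. KD from 1:1 fit.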

[2] = target: HRAS wild-type protein (Homo sapiens, UniProt P01112); experiment: Binding to HRAS by surface plasmon resonance (SPR), KD and KD ratio to KRAS
In short: as §1

[3] = test system: human lung cancer strain NCI-H441; format: cell-based
In short: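 Signal came from […] measured per well once the reagent was added. Beforehand, cells were cultured at 37°C and 5% carbon dioxide on a compound series serially diluted in dimethyl sulfoxide.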

[4] = ratio of KD for GDP-bound NRAS wild-type protein to KD for KRAS
[5] = ratio of KD for HRAS wild-type protein to KD for KRAS
[6] = ratio of the KD value with respect to GDP-bound NRAS wild-type protein to the KD value with respect to KRAS
[7] = ratio of the KD value with respect to HRAS wild-type protein to the KD value with respect to KRAS

HRAS wild-type protein, sequence (P01112 whole entry): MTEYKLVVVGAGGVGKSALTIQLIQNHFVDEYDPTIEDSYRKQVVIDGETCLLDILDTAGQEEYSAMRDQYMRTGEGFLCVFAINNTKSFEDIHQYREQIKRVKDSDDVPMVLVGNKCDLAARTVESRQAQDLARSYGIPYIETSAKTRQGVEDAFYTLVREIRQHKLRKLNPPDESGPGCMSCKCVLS
GDP-bound NRAS wild-type protein, sequence (P01111 whole entry): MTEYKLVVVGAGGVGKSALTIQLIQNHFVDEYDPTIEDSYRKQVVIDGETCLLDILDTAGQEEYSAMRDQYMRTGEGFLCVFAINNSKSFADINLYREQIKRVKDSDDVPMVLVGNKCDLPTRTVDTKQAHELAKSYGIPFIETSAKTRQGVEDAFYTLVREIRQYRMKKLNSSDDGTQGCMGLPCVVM

| SMILES | pIC50 [3] | NRAS /KRAS [1, 4] | HRAS /KRAS [2, 5] | NRAS /KRAS ([1]; ratio of KD value for GDP-bound NRAS wild-type protein to KD value for KRAS (SPR)) | HRAS /KRAS ([2]; ratio of KD value for HRAS wild-type protein to KD value for KRAS (SPR)) | NRAS /KRAS [1, 6] | HRAS /KRAS [2, 7] |
| --- | --- | --- | --- | --- | --- | --- | --- |
| CCCN1CC(=O)N(C)CC(=O)N(CCC)[C@@H](Cc2ccc(C(F)(F)F)cc2)C(=O)N(C)CC(=O)N[C@@H](CCc2ccc(C(F)(F)F)c(Cl)c2)C(=O)N2CCC[C@H]2C(=O)NC2(CCCC2)C(=O)N(C)[C@@H](C2CCCC2)C(=O)N(C)[C@H](C(=O)N2CCOCC2)CC(=O)N(C)[C@@H](CC(C)C)C(=O)N[C@@H]([C@@H](C)CC)C1=O [PP0253] ([NMeL]I[NPrGly][Sar][NPrPhe(4-CF3)][Sar][hPhe(3-Cl-4-CF3)]P[Ac5c][NMeGly(cPent)][NMeD]-Morpholide; lactam N-11) | 7.82 | B (a compound having 3 or more and less than 10 is denoted as B) | B (a compound having 3 or more and less than 10 is denoted as B) |  |  |  |  |
| CC[C@H](C)[C@@H]1NC(=O)[C@H](CC(C)C)N(C)C(=O)C[C@@H](C(=O)N2CCOCC2)N(C)C(=O)[C@H](C2CCCC2)N(C)C(=O)C2(CCCC2)NC(=O)[C@@H]2CCCN2C(=O)[C@H](CCc2ccc(C(F)(F)F)c(Cl)c2)NC(=O)CN(C)C(=O)[C@H](Cc2ccc(C)cc2)N(C)C(=O)[C@H](CO)N(C)C(=O)CN(C)C1=O [PP0037] ([NMeL]I[Sar][NMeS][NMePhe(4-Me)][Sar][hPhe(3-Cl-4-CF3)]P[Ac5c][NMeGly(cPent)][NMeD]-Morpholide; lactam N-11) | 6.37 | C (A compound having a KD ratio of 0.1 or more and less than 3 is denoted as C) | C (A compound having a KD ratio of 0.1 or more and less than 3 is denoted as C) |  |  |  |  |
| CCC[C@H]1C(=O)N[C@@H]([C@@H](C)CC)C(=O)N(C)CC(=O)N(C)[C@H]2C/C=C\CCN(C2=O)[C@@H](Cc2ccc(C(F)(F)F)cc2)C(=O)N(C)CC(=O)N[C@@H](CCc2ccc(C(F)(F)F)c(Cl)c2)C(=O)N2CCCC[C@H]2C(=O)NC2(CC(C)(C)C2)C(=O)N(C)[C@@H](C(CC)CC)C(=O)N(C)[C@H](C(=O)N(C)C)CC(=O)N1C [PP2928] | 6.77 | AA (a compound having 20 or more is denoted as AA) | A (a compound having 10 or more and less than 20 is denoted as A) |  |  |  |  |
| CC[C@H](C)[C@@H]1NC(=O)[C@@H]2CCC/C=C/c3ccc(cc3)C[C@@H](C(=O)N(C)CC(=O)N[C@@H](CCc3ccc(Cl)c(Cl)c3)C(=O)N3CCC[C@H]3C(=O)NC3(CC(C)(C)C3)C(=O)N(C)[C@@H](C3CCCC3)C(=O)N(C)[C@H](C(=O)N(C)CC)CC(=O)N2C)N2CC/C=C\C[C@@H](C2=O)N(C)C(=O)CN(C)C1=O [PP2601] | 8.05 | A (a compound having 10 or more and less than 20 is denoted as A) | A (a compound having 10 or more and less than 20 is denoted as A) |  |  |  |  |
| CC[C@H](C)[C@@H]1NC(=O)[C@H](CC(C)C)N(C)C(=O)C[C@@H](C(=O)N2CCOCC2)N(C)C(=O)[C@H](C2CCCC2)N(C)C(=O)C2(CCCC2)NC(=O)[C@@H]2CCCN2C(=O)[C@H](CCc2ccc(C(F)(F)F)c(Cl)c2)NC(=O)CN(C)C(=O)[C@H](Cc2ccc(C(F)(F)F)cc2)N(CC)C(=O)CN(C)C(=O)CN(C)C1=O [PP0023] ([NMeL]I[Sar][Sar][NEtPhe(4-CF3)][Sar][hPhe(3-Cl-4-CF3)]P[Ac5c][NMeGly(cPent)][NMeD]-Morpholide; lactam N-11) | 8.35 | B (a compound having 3 or more and less than 10 is denoted as B) | C (A compound having a KD ratio of 0.1 or more and less than 3 is denoted as C) |  |  |  |  |
| CC[C@H](C)[C@@H]1NC(=O)[C@H](CC(C)C)N(C)C(=O)C[C@@H](C(=O)N2CCOCC2)N(CC)C(=O)[C@H](C2CCCC2)N(C)C(=O)C2(CCCC2)NC(=O)[C@@H]2CCCN2C(=O)[C@H](CCc2cc(F)c(C(F)(F)F)c(F)c2)NC(=O)CN(C)C(=O)[C@H](Cc2ccc(C(F)(F)F)cc2)N2CCCC[C@@H](C2=O)N(C)C(=O)CN(C)C1=O [PP0539] | 8.20 |  |  |  |  | B (a compound having 3 or more and less than 10 is denoted as B) | B (a compound having 3 or more and less than 10 is denoted as B) |

Now from value to compound, other results behind:

| pIC50 [3] | SMILES | NRAS /KRAS [1, 4] | HRAS /KRAS [2, 5] | NRAS /KRAS ([1]; ratio of KD value for GDP-bound NRAS wild-type protein to KD value for KRAS (SPR)) | HRAS /KRAS ([2]; ratio of KD value for HRAS wild-type protein to KD value for KRAS (SPR)) | NRAS /KRAS [1, 6] | HRAS /KRAS [2, 7] |
| --- | --- | --- | --- | --- | --- | --- | --- |
| 8.19 | CCC[C@H]1C(=O)N[C@@H](C2CCCC2)C(=O)N(C)CC(=O)N(C)[C@H]2C/C=C\CCN(C2=O)[C@@H](Cc2ccc(C)cc2)C(=O)N(C)CC(=O)N[C@@H](CCc2cc(F)c(C(F)(F)F)c(F)c2)C(=O)N2C[C@H](OCC)C[C@H]2C(=O)NC2(CC(C)(C)C2)C(=O)N(C)[C@@H](CC(C)(C)C)C(=O)N(C)[C@H](C(=O)N(C)C)CC(=O)N1C [PP2989] | AA (a compound having 20 or more is denoted as AA) | A (a compound having 10 or more and less than 20 is denoted as A) |  |  |  |  |
| 8.16 | CCO[C@@H]1C[C@H]2C(=O)N(C)C3(CCC3)C(=O)N(C)[C@@H](C3CCCC3)C(=O)N(C)[C@H](C(=O)N(C)C)CC(=O)N(C)[C@@H](CC)C(=O)N[C@@H]([C@@H](C)CC)C(=O)N3CCC[C@H]3C(=O)N(C)[C@H]3C/C=C\CCN(C3=O)[C@@H](Cc3ccc(C)cc3)C(=O)N(C)CC(=O)N[C@@H](CCc3cc(F)c(C(F)(F)F)c(F)c3)C(=O)N2C1 [PP1785] |  |  | A (a compound having 10 or more and less than 20 is denoted as A) | A (a compound having 10 or more and less than 20 is denoted as A) |  |  |
| 6.09 | CCO[C@@H]1C[C@H]2C(=O)NC3(CCCC3)C(=O)N(C)[C@@H](C3CCCC3)C(=O)N(C)[C@H](C(=O)N(C)C)CC(=O)N(C)[C@@H](CC)C(=O)N[C@@H]([C@@H](C)CC)C(=O)N(C)CC(=O)N(C)[C@H]3CC(C)=C(C)CN(C3=O)[C@@H](Cc3ccc(C(F)(F)F)cc3)C(=O)N(C)CC(=O)N[C@@H](CCc3cc(F)c(C(F)(F)F)c(F)c3)C(=O)N2C1 [PP1050] | C (A compound having a KD ratio of 0.1 or more and less than 3 is denoted as C) | C (A compound having a KD ratio of 0.1 or more and less than 3 is denoted as C) |  |  |  |  |
| 7.78 | CCC[C@H]1C(=O)N[C@@H]([C@@H](C)CC)C(=O)N(C2CC2)CC(=O)N(C)[C@H]2C/C=C\CCN(C2=O)[C@@H](Cc2ccc(C(F)(F)F)cc2)C(=O)N(C)CC(=O)N[C@@H](CCc2cc(F)c(C(F)(F)F)c(F)c2)C(=O)N2C[C@H](OCC)C[C@H]2C(=O)NC2(CC(C)(C)C2)C(=O)N(C)[C@@H](C2CCCC2)C(=O)N(C)[C@H](C(=O)N(C)C)CC(=O)N1C [PP2101] |  |  |  |  | A (a compound having 10 or more and less than 20 is denoted as A) | B (a compound having 3 or more and less than 10 is denoted as B) |
| 6.95 | CCO[C@@H]1C[C@H]2C(=O)NC3(CCC3)C(=O)N(C)[C@@H](C3CCCC3)C(=O)N(C)[C@H](C(=O)N3CCOCC3)CC(=O)N(C)[C@@H](Cc3cccc(Cl)c3)C(=O)N[C@@H]([C@@H](C)CC)C(=O)N(C)CC(=O)N(C)[C@H]3CCCCCN(C3=O)[C@@H](Cc3ccc(C(F)(F)F)cc3)C(=O)N(C)CC(=O)N[C@@H](CCc3cc(F)c(C(F)(F)F)c(F)c3)C(=O)N2C1 [PP0857] | B (a compound having 3 or more and less than 10 is denoted as B) | B (a compound having 3 or more and less than 10 is denoted as B) |  |  |  |  |
| 7.64 | CCO[C@@H]1C[C@H]2C(=O)NC3(CCC3)C(=O)N(C)[C@@H](C3CCCC3)C(=O)N(C)[C@H](C(=O)N(C)C)CC(=O)N(C)[C@@H](CC3CCC3)C(=O)N[C@@H]([C@@H](C)CC)C(=O)N(C)CC(=O)N(C)[C@H]3CCCCCN(C3=O)[C@@H](Cc3ccc(C(F)(F)F)cc3)C(=O)N(C)CC(=O)N[C@@H](CCc3cc(F)c(C(F)(F)F)c(F)c3)C(=O)N2C1 [PP0668] |  |  |  |  | B (a compound having 3 or more and less than 10 is denoted as B) | B (a compound having 3 or more and less than 10 is denoted as B) |
